Consider eleven compounds from PubChem BioAssay (NCI).

Some test systems named below: HOP-92 NSCLC; IGROV1 ovarian; LOX IMVI melanoma; NCI-H460 lung; DU-145 prostate; SN12C renal; SK-OV-3 ovarian; K-562 leukemia; 786-0 renal; EKVX NSCLC.
Assay in all cases: growth of human tumour cells (NCI), 48 h

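All cell lines were grown in 96-well plates and treated with compound for 48 hours. GI50 marks 50% less growth. TGI marks complete inhibition of growth.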

Consider `CC(C)CCN=C(N)c1ccc(N2CCN(c3ccc(C(N)=NCCC(C)C)cc3)CC2)cc1`, for which the GI50 with HOP-92 NSCLC is 3.86 µM; in the test with IGROV1 ovarian, 6.27 µM; in the test on LOX IMVI melanoma, 21.2 µM; in the test on NCI-H460 lung, 14.5 µM; in the test on DU-145 prostate, 6.95 µM; in the test on SN12C renal, 7.52 µM. Besides, the GI50 in the test on SK-OV-3 ovarian was 4.45 µM; in the test with K-562 leukemia, 2.09 µM; in the test on 786-0 renal it was 6.58 µM; in the test with EKVX NSCLC, 1 µM. Further, the TGI amounted to 24.3 µM in the test on HOP-92 NSCLC; 40.3 µM with IGROV1 ovarian; 57.3 µM in the test with LOX IMVI melanoma; 49.3 µM in the test on NCI-H460 lung; 71.2 µM in the test on DU-145 prostate; 42.7 µM in the test with SN12C renal. Further, the TGI in the test on SK-OV-3 ovarian was 25.5 µM; in the test on K-562 leukemia it was greater than 100 µM; with 786-0 renal, 38 µM; in the test with EKVX NSCLC it was 10.4 µM.

On to `O=[N+]([O-])c1c(Br)sc(Br)c1[N+](=O)[O-]`, for which the GI50 is 1.87 µM in the test with HOP-92 NSCLC; 1.98 µM with IGROV1 ovarian; 1.58 µM in the test with LOX IMVI melanoma; 6.67 µM in the test with NCI-H460 lung; 6.8 µM in the test with DU-145 prostate; 3.12 µM with SN12C renal. In addition, the GI50 in the test on SK-OV-3 ovarian is 14 µM; in the test on K-562 leukemia, 0.815 µM; in the test with 786-0 renal, 1.73 µM; in the test on EKVX NSCLC, 9.3 µM. For the same compound, the TGI in the test with HOP-92 NSCLC is 3.57 µM; with IGROV1 ovarian, 5.38 µM; in the test with LOX IMVI melanoma it was 3.07 µM; in the test on NCI-H460 lung, 28.1 µM; in the test on DU-145 prostate it was 19.6 µM; in the test with SN12C renal it was 10.9 µM. Further, the TGI is 27 µM in the test with SK-OV-3 ovarian, 3.99 µM with K-562 leukemia, 3.25 µM in the test with 786-0 renal and 23.8 µM in the test with EKVX NSCLC.

On to `Nc1nc(-c2ccc(F)cc2)c(-c2ccc3ncccc3n2)s1`, for which the GI50 with HOP-92 NSCLC is 0.268 µM; in the test with IGROV1 ovarian, 5.44 µM; in the test on LOX IMVI melanoma, 18 µM; with NCI-H460 lung, 8.7 µM; with DU-145 prostate, 14.1 µM; in the test on SN12C renal it was 10.1 µM. Moreover, the GI50 is 6.82 µM in the test with SK-OV-3 ovarian, greater than 18.5 µM with K-562 leukemia, 16.9 µM in the test on 786-0 renal and 11.2 µM in the test on EKVX NSCLC. In addition, the TGI was 24.6 µM in the test on HOP-92 NSCLC; greater than 20.9 µM with IGROV1 ovarian; greater than 25 µM in the test on LOX IMVI melanoma; greater than 25 µM in the test with NCI-H460 lung; greater than 25 µM with DU-145 prostate; greater than 25 µM with SN12C renal. Further, the TGI in the test with SK-OV-3 ovarian, in the test on K-562 leukemia, in the test with 786-0 renal and in the test on EKVX NSCLC was greater than 25 µM each time.

For the compound `Fc1ccc(Nc2nc3nonc3nc2Nc2ccc(F)cc2)cc1`, the GI50 is 0.168 µM in the test on HOP-92 NSCLC; 0.57 µM in the test with IGROV1 ovarian; 0.469 µM in the test on LOX IMVI melanoma; 0.319 µM in the test with NCI-H460 lung; 0.57 µM in the test on DU-145 prostate; 0.301 µM in the test on SN12C renal. The GI50 in the test on SK-OV-3 ovarian was 0.244 µM; with K-562 leukemia, 0.352 µM; in the test on 786-0 renal, 0.509 µM. The TGI worked out at 0.629 µM in the test with HOP-92 NSCLC; 13.8 µM in the test with IGROV1 ovarian; 4.29 µM in the test with LOX IMVI melanoma; 10.5 µM in the test on NCI-H460 lung; 15 µM with DU-145 prostate; 3.01 µM in the test on SN12C renal. In addition, the TGI was found to be 0.852 µM with SK-OV-3 ovarian, 12.4 µM with K-562 leukemia and 8.48 µM with 786-0 renal.

Regarding `COc1ccc(Cn2cc3c(c2-c2ccc(OC)cc2)CCc2cnoc2-3)cc1`, the GI50 in the test on HOP-92 NSCLC was 1.12 µM; in the test on IGROV1 ovarian it was 0.775 µM; in the test with LOX IMVI melanoma, 0.706 µM; with NCI-H460 lung it was 0.347 µM; in the test with DU-145 prostate, 0.35 µM; in the test with SN12C renal it was 0.795 µM. Besides, the GI50 with SK-OV-3 ovarian was 0.571 µM; with K-562 leukemia, 0.349 µM; with 786-0 renal, 0.658 µM; in the test on EKVX NSCLC, 0.523 µM. The TGI is greater than 100 µM in the test with HOP-92 NSCLC; greater than 100 µM in the test with IGROV1 ovarian; greater than 100 µM in the test on LOX IMVI melanoma; 1.96 µM in the test with NCI-H460 lung; 2.71 µM with DU-145 prostate; greater than 100 µM with SN12C renal. The TGI in the test with SK-OV-3 ovarian, with K-562 leukemia, in the test with 786-0 renal and in the test on EKVX NSCLC was greater than 100 µM each time.

For the compound `CC[C@@H](C(=O)[C@@H](C)[C@@H](O)[C@H](C)[C@@H]1O[C@@H]([C@@H](CC)C(=O)N(CC)CC)CC[C@@H]1C)C1O[C@]2(C=CC(=O)[C@]3(CC[C@@](C)([C@H]4CC[C@](O)(CC)[C@H](C)O4)O3)O2)[C@H](C)C[C@@H]1C` (some centres not stated), the GI50 with HOP-92 NSCLC was 1.35 µM; in the test on IGROV1 ovarian, 2.31 µM; in the test on LOX IMVI melanoma, 1.58 µM; with NCI-H460 lung, 2.11 µM; with DU-145 prostate it was 3.41 µM; in the test with SN12C renal it was 2.41 µM. Besides, the GI50 is 3.87 µM in the test with SK-OV-3 ovarian, 2.89 µM with K-562 leukemia, 3.22 µM in the test with 786-0 renal and 2.75 µM with EKVX NSCLC. Moreover, the TGI is 4.6 µM in the test with HOP-92 NSCLC; 7.71 µM in the test with IGROV1 ovarian; 3.17 µM with LOX IMVI melanoma; 4.94 µM with NCI-H460 lung; 12.6 µM in the test on DU-145 prostate; 8.64 µM in the test on SN12C renal. In addition, the TGI in the test on SK-OV-3 ovarian is greater than 100 µM; with K-562 leukemia it was greater than 100 µM; in the test with 786-0 renal, 15.9 µM; with EKVX NSCLC, 18.6 µM.

With `COc1cc(/C=C/C(=O)c2ccc(NC(=O)CN3CCN(c4cc5c(cc4F)c(=O)c(C(=O)O)cn5C4CC4)CC3)cc2)cc(OC)c1OC`, the GI50 is 1.79 µM with HOP-92 NSCLC; 0.671 µM with IGROV1 ovarian; 0.511 µM in the test with LOX IMVI melanoma; 0.497 µM with NCI-H460 lung; 1.07 µM in the test with DU-145 prostate; 0.632 µM with SN12C renal. Besides, the GI50 with SK-OV-3 ovarian was 2.58 µM; in the test on K-562 leukemia, 0.36 µM; in the test with 786-0 renal, 0.947 µM. For the same compound, the TGI in the test on HOP-92 NSCLC is 7.58 µM; in the test with IGROV1 ovarian it was 3.37 µM; with LOX IMVI melanoma, 2.24 µM; in the test with DU-145 prostate, greater than 27.1 µM; in the test on SN12C renal, 9.01 µM; in the test on SK-OV-3 ovarian, greater than 29.8 µM. The values for the TGI in the test on K-562 leukemia and in the test with 786-0 renal were greater than 100 µM and 3.19 µM, respectively.

In the case of `COc1ccc2c(c1)C(=O)c1c-2c(Nc2ccc(Cl)cc2)nc2ccccc12`, the GI50 in the test with HOP-92 NSCLC was 11.5 µM; in the test with IGROV1 ovarian, 10.7 µM; with LOX IMVI melanoma, 14.2 µM; with NCI-H460 lung it was greater than 100 µM; in the test on DU-145 prostate it was 8.49 µM; with SN12C renal it was 17.7 µM. Further, the GI50 in the test with K-562 leukemia is 71.6 µM; in the test with 786-0 renal, 4.15 µM; in the test on EKVX NSCLC it was 10.1 µM. Besides, the TGI with HOP-92 NSCLC is 39.2 µM; in the test with IGROV1 ovarian, 52.1 µM; with LOX IMVI melanoma, 54.9 µM; in the test on NCI-H460 lung, greater than 100 µM; in the test with DU-145 prostate, 98.5 µM; in the test on SN12C renal, 57.1 µM. In addition, the values for the TGI in the test with K-562 leukemia, in the test with 786-0 renal and in the test with EKVX NSCLC were greater than 100 µM, 16 µM and 95.3 µM, respectively.

As for `COc1ccc(Nc2c3ccccc3nc3ccccc23)cc1`, the GI50 was 0.259 µM with HOP-92 NSCLC; 0.629 µM with IGROV1 ovarian; 0.984 µM in the test with LOX IMVI melanoma; 0.479 µM with NCI-H460 lung; 2.43 µM in the test with DU-145 prostate; 2.18 µM in the test with SN12C renal. For the same compound, the figures for the GI50 in the test with SK-OV-3 ovarian, with K-562 leukemia and in the test with 786-0 renal were 3.66 µM, 0.583 µM and 3.85 µM, respectively. In addition, the TGI is 2.93 µM in the test with HOP-92 NSCLC; 8.72 µM in the test on IGROV1 ovarian; 4.81 µM in the test with LOX IMVI melanoma; 6.2 µM in the test on NCI-H460 lung; 12.3 µM in the test with DU-145 prostate; 13 µM with SN12C renal. The TGI in the test on SK-OV-3 ovarian stood at 16.2 µM; in the test on K-562 leukemia it was 7.19 µM; with 786-0 renal, 16.7 µM.

On to `CCNC(=O)c1cc2c(-c3cc(C(C)(C)O)ccc3Oc3c(C)cc(F)cc3C)cn(C)c(=O)c2[nH]1`, for which the GI50 in the test on HOP-92 NSCLC was 0.257 µM; with IGROV1 ovarian, 1.39 µM; with LOX IMVI melanoma it was 0.922 µM; in the test on NCI-H460 lung it was 3.3 µM; with DU-145 prostate, 4.52 µM; in the test with SN12C renal it was 3.03 µM. Further, the GI50 was 1.86 µM in the test on K-562 leukemia, 1.15 µM with 786-0 renal and 2.26 µM with EKVX NSCLC. Besides, the TGI with HOP-92 NSCLC was found to be 10.9 µM; in the test with IGROV1 ovarian, 11.2 µM; with LOX IMVI melanoma, 2.74 µM; in the test with NCI-H460 lung, 17.6 µM; in the test with DU-145 prostate, 18.4 µM; in the test with SN12C renal, 16.8 µM. For the same compound, the TGI in the test with K-562 leukemia is greater than 100 µM; in the test with 786-0 renal it was 19.2 µM; with EKVX NSCLC, 16.4 µM.

Consider `COc1cc(Nc2ccnc(NCCCNc3ccnc4cc(Cl)ccc34)n2)cc(OC)c1`, for which the GI50 in the test on HOP-92 NSCLC was 0.431 µM; in the test with IGROV1 ovarian, 2.23 µM; in the test on LOX IMVI melanoma it was 1.37 µM; in the test with NCI-H460 lung it was 1.46 µM; in the test with DU-145 prostate, 3.62 µM; in the test with SN12C renal, 2 µM. The GI50 in the test with SK-OV-3 ovarian is 2.42 µM; in the test on K-562 leukemia, 0.52 µM; in the test with 786-0 renal, 1.59 µM. Also, the TGI worked out at 2.69 µM in the test on HOP-92 NSCLC; 5.73 µM with IGROV1 ovarian; 2.82 µM in the test with LOX IMVI melanoma; 3.77 µM with NCI-H460 lung; 12.2 µM in the test with DU-145 prostate; 7.3 µM with SN12C renal. The values for the TGI in the test on SK-OV-3 ovarian, in the test on K-562 leukemia and in the test on 786-0 renal were 6.08 µM, 2.39 µM and 3.12 µM, respectively.
